In publication PMC11167047 (Cell Death Discovery, 2024):
Read-outs that look alike come from different tables or passages of the source.

Key:
HeLa cells = test: EdU incorporation by microscopy; assay type: cell-based, human; details: 24 h, non-lethal dose (IC25)
Method: The EdU-assay, utilizing the EdU-click 488 kit from Baseclick GmbH (#BCK-TCell-FC488) was performed according to manufacturer’s instructions. The EdU-assay is employed to measure the incorporation of 5-ethynyl-2’-deoxyuridine (EdU) into DNA, providing a means to assess cell proliferation. Cell proliferation involves the synthesis of new DNA during the S phase of the cell cycle. When cells are exposed to 5-EdU, they incorporate the compound into their DNA at thymidine bases during S phase. A fluorophore-labeled azide reacts with the incorporated EdU, enabling its detection through microscopy (sigmaaldrich.com). The experimental process involves seeding cells and allowing them to grow to the desired density, applying the indicated treatments, and subsequently adding EdU to the media. After fixation and permeabilization, the EdU detection, along with DAPI-stained nuclei, is carried out using fluorescence microscopy.

[1] = test system: 335 wild-type protein kinases; test: kinome screen, selectivity score; assay type: biochemical
Method: The Kinome Screening was performed by Reaction Biology Europe GmbH (http://reactionbiology.com; Freiburg i. Br., Germany). […] A kinase inhibition profile of the three meriolins was determined by measuring residual activity at two concentrations each in single values in 335 wild-type protein kinase assays.
The selectivity score was calculated as: SelectivityScore=Countofdatapoints<50%/(Totalnumberofdatapoints)

[2] = test system: FL169 follicular lymphoma cells; details: read-out: IC50 (FL169); primary patient cells, 24 h
From the text: (§5) For chronic lymphocytic leukemia, mononuclear cells were isolated from peripheral blood using a Ficoll gradient (GE Healthcare). Primary cells from other lymphoma entities were isolated as previously described [80]. All cells were cryopreserved after isolation and thawed as previously described [81].
(§6) The resazurin reduction assay, which is also known as AlamarBlue® assay, was used for the determination of cell viability in all cytotoxicity determinations shown in the present work, as previously described [22]. Briefly, cells were seeded at a specific density depending on the incubation time (24 h: 1 × 10^6 cells/ml) in a 96-well plate and incubated with increasing compound concentrations (0.01–30 µM). After the specified treatment time, resazurin (Sigma, #R7017) was added to a final concentration of 40 µM. […] The viability of control cells was set to 100% and all other values were normalized to the control condition, the dose-response curves were then fitted with Prism v7.01 (GraphPad software, La Jolla, CA, USA).

CDK1/cyclin B1 = molecular target: T1, CDK1/cyclin B1 (Homo sapiens, UniProt P06493); test: luminescence-based kinase activity assay; assay type: biochemical; details: result in words
T1 construct: purchased BPS Bioscience #79597
Method: (§1) The activity of specific CDKs and their cyclins was assessed using CDK Kits from BPS Bioscience (CDK1/cyclin B1 #79597; CDK2/cyclin A2 #79599; CDK9/cyclin T #79628). The assay was conducted following the manufacturer’s guidelines. In summary, the CDK/cyclin complexes, as purified recombinant enzymes, were allowed to react with CDK substrate peptide, ATP, and kinase buffer in the presence or absence of meriolins. The reaction was initiated by adding diluted CDK/cyclin enzyme to the wells and incubating for 45 min at 30 °C. After the incubation, the Kinase-Glo-Max® reagent was added as a detection reagent, and the resulting luciferase reaction produced luminescence, which was inversely correlated with the kinase activity.
(§2) The luminescent CDK/cyclin assay is a method that quantifies the amount of ATP remaining in the solution after a kinase reaction. Luminescence was measured using the Synergy Mix microplate reader as an endpoint measurement. Data analyses were performed according to the manufacturer’s instructions, and statistical analysis was carried out using one-way ANOVA, with corrections made by Bonferroni’s multiple comparison test. The significance level was indicated as ****p ≤ 0.0001.

CDK9/cyclin T = molecular target: T2, CDK9/cyclin T (Homo sapiens, UniProt P50750); test: luminescence-based kinase activity assay; assay type: biochemical; details: result in words
T2 construct: purchased BPS Bioscience #79628
Method: as §1, §2

CDK2/cyclin A2 = molecular target: T3, CDK2/cyclin A2 (Homo sapiens, UniProt P24941); test: luminescence-based kinase activity assay; assay type: biochemical; details: result in words
T3 construct: purchased BPS Bioscience #79599
Method: as §1, §2

HL60 = details: read-out: IC50 (HL60); cytotoxicity, 24 h
Method: (§7) The resazurin reduction assay, which is also known as AlamarBlue® assay, was used for the determination of cell viability in all cytotoxicity determinations shown in the present work, as previously described [22]. Briefly, cells were seeded at a specific density depending on the incubation time (24 h: 1 × 10^6 cells/ml) in a 96-well plate and incubated with increasing compound concentrations (0.01–30 µM). After the specified treatment time, resazurin (Sigma, #R7017) was added to a final concentration of 40 µM. […] The viability of control cells was set to 100% and all other values were normalized to the control condition, the dose-response curves were then fitted with Prism v7.01 (GraphPad software, La Jolla, CA, USA). The reduction of resazurin to resorufin is proportional to aerobic respiration; therefore, it is used as a measure for the cell viability and cytotoxicity of a tested compound.

cyclin B1 expression = test: immunoblotting of cyclin B1 in Ramos cells; assay type: cell-based, human; details: 24 h
Method: (§3) Cells were seeded at a density of 2 × 10^6 cells, treated as specified and harvested by centrifugation at 3000 rpm for 5 min, followed by freezing in liquid nitrogen. The cell pellets were thawed on ice and quick-frozen and defrozen in liquid nitrogen for three times, then lysed on ice in lysis buffer (20 mM Tris-HCl, 150 mM NaCl, 1% v/v Triton X-100, 0.5 mM EDTA, 10 mM NaF, 2.5 mM Na4P2O7, protease inhibitor (Sigma, #P2714)) for 30 min, accompanied by vortexing. Subsequently, centrifugation 13,300 rpm for 15 min purified cell lysates from cell debris. The supernatant was transferred to a new tube and the protein concentration was determined by Bradford assay. The samples were diluted with sample buffer. SDS-Page and Western Blot were conducted in accordance with standard workflows. […] The antibody baths were stored at 4 °C and re-used.
(§4) The density of the individual protein band was determined using Image Studio^TM Lite Version 5.2. The density of each protein was divided by the average of all bands of this protein. The ratios of the protein of interest were normalized to the ratio of the respective loading control. To determine the fold change, each normalized ratio was divided by the normalized band of the control line (untreated cells). Fold change is 1 for the control line, n ≥ 2. The results are shown as mean ± standard deviation and were visualized with GraphPad Prism 7.

Ramos = test: AlamarBlue viability assay; assay type: cell-based, human; details: cytotoxicity, 24 h, read-out: IC50 (Ramos)
Method: as §7

[3] = test system: retinoblastoma (RB) protein phosphorylation; test: immunoblotting of phospho-RB in Ramos cells; assay type: cell-based, human; details: for phosphorylation of RB at p-Ser249 and p-Thr252: 0.1 or 1 µM (R547 1 µM)
Method: as §3, §4

[4] = test system: CLL16 chronic lymphocytic leukemia cells; details: read-out: IC50 (CLL16); primary patient cells, 24 h
From the text: as §5, §7

[5] = test system: CLL17 chronic lymphocytic leukemia cells; details: read-out: IC50 (CLL17); primary patient cells, 24 h
From the text: as §5, §6

HPBALL = details: read-out: IC50 (HPBALL); cytotoxicity, 24 h
Method: as §7

T2 sequence (P50750 whole entry): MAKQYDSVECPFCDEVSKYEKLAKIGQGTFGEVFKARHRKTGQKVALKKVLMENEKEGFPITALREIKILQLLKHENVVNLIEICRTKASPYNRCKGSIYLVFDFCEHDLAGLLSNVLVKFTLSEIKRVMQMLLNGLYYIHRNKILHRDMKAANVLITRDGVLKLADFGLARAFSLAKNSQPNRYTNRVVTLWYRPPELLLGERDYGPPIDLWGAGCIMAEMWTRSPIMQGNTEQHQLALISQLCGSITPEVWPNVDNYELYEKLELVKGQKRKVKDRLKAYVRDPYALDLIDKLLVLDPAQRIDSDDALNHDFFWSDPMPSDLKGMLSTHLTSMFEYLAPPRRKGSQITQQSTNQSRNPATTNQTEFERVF
T2 sequence (O60563 whole entry partner): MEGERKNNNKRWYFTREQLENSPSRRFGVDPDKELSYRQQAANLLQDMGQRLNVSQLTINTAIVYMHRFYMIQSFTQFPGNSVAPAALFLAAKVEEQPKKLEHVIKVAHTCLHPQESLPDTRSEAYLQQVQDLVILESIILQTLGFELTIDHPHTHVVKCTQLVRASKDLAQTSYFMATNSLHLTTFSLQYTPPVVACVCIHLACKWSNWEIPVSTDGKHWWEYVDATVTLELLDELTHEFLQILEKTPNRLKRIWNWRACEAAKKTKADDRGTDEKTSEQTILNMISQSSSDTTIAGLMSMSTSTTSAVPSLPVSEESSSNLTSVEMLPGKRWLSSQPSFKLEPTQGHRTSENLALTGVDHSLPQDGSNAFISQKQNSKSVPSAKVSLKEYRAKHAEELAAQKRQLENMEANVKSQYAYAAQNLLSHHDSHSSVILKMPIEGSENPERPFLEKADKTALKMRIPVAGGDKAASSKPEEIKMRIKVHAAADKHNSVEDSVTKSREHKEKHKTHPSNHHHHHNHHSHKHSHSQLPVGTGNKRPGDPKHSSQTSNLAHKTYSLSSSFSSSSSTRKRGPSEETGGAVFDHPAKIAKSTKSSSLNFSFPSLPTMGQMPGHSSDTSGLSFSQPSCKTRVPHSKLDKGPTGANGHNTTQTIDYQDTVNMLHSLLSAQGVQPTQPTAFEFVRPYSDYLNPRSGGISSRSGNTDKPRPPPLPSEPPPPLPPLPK
T1 sequence (P06493 whole entry): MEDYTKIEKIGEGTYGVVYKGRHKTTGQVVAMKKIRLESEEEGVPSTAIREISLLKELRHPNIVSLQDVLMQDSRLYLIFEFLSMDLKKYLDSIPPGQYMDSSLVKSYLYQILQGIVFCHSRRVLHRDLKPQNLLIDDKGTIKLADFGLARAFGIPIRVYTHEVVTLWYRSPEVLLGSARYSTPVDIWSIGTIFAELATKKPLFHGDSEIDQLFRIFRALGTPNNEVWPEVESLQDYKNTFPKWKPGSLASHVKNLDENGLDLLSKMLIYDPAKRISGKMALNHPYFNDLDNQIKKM
T1 sequence (P14635 whole entry partner): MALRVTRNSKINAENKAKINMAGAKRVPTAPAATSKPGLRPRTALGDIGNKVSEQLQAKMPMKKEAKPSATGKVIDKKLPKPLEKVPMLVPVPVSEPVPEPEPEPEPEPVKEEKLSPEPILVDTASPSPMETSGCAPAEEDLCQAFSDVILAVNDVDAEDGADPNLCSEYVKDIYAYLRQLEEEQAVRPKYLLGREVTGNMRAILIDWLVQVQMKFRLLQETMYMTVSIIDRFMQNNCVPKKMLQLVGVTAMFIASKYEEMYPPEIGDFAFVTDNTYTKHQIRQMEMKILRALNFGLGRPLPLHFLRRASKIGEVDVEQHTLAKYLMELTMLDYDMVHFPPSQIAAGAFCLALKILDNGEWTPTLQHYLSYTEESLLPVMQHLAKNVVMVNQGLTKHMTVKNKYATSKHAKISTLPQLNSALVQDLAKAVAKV

## COc1ccnc2[nH]cc(-c3cc(N)nc(N)c3)c12 [meriolin 16]
HeLa cells
  EdU incorporation (proliferation) reduced to: 10%
[1]; 0.03 µM
  Selectivity Score (< 50% residual activity): 0.140
[1]; 0.3 µM
  Selectivity Score (< 50% residual activity): 0.284
[2]
  IC50: 2820 nM
CDK1/cyclin B1
  inhibition of CDK1/cyclin B1: inhibited
CDK9/cyclin T
  inhibition of CDK9/cyclin T: inhibited
CDK2/cyclin A2
  inhibition of CDK2/cyclin A2: inhibited
HL60
  IC50: 10 nM
Cyclin B1 expression
  expression of cyclin B1: reduced the expression of cyclin B1
Ramos; as given in text
  IC50: 20 to 30 nM
Ramos; listed as Meriolin 16
  IC50: 20 nM
Ramos
  IC50: 30 nM
[3]; 0.1 and 1 µM, up to 24 h
  phosphorylation of RB at p-Ser612 and p-Thr821: no longer phosphorylated
[3]; 0.1 and 1 µM, up to 24 h, listed as Meriolin 16
  phosphorylation of RB at p-Ser612 and p-Thr821: loss of the phosphorylations
[3]; up to 24 h
  phosphorylation of RB at p-Ser249 and p-Thr252: reduced the phosphorylation
[4]
  IC50: 60 nM
[5]
  IC50: 50 nM
HPBALL
  IC50: 20 nM

## c1ccc(CNc2cc(-c3c[nH]c4ncccc34)ccn2)cc1 [meriolin 36]
HeLa cells
  EdU incorporation (proliferation) reduced to: 10%
[1]; 0.3 µM
  Selectivity Score (< 50% residual activity): 0.397
[1]; 3 µM
  Selectivity Score (< 50% residual activity): 0.752
[2]
  IC50: 100 nM
CDK1/cyclin B1
  inhibition of CDK1/cyclin B1: inhibited
CDK9/cyclin T
  inhibition of CDK9/cyclin T: inhibited
CDK2/cyclin A2
  inhibition of CDK2/cyclin A2: inhibited
HL60
  IC50: 1230 nM
Cyclin B1 expression
  expression of cyclin B1: rather increased the expression of cyclin B1
[3]; 0.1 and 1 µM
  phosphorylation of RB at Ser612: increase of the phosphorylation
[3]; 0.1 and 1 µM (R547 1 µM), up to 24 h
  phosphorylation of RB at p-Thr821: no notable change
[3]; 0.1 and 1 µM, up to 24 h
  phosphorylation of RB at p-Ser612 and p-Thr821: This effect was not observed
[3]; up to 24 h
  phosphorylation of RB at p-Ser249 and p-Thr252: no effect
[4]
  IC50: 200 nM
[5]
  IC50: 110 nM
HPBALL
  IC50: 3440 nM
